Laboratory results from PubChem BioAssay (NCI).
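Each compound was tested at five concentrations against cells in 96-well plates for 48 hours. At the GI50, growth is halved. At the TGI there is no net growth.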

Tests used:
Assay in all cases: inhibition of tumour cell growth, NCI panel, 48 h
[1] = system: RPMI-8226 leukemia
[2] = system: NCI-H460 lung
[3] = system: UO-31 renal
[4] = system: M14 melanoma
[5] = system: HL-60(TB) leukemia
[6] = system: UACC-257 melanoma
[7] = system: COLO 205 colon
[8] = system: IGROV1 ovarian
[9] = system: 786-0 renal
[10] = system: SK-MEL-28 melanoma

| Compound | TGI [1] | TGI [2] | TGI [3] | TGI [4] | TGI [5] | TGI [6] | TGI [7] | TGI [8] | TGI [9] | TGI [10] | GI50 [1] | GI50 [2] | GI50 [3] | GI50 [4] | GI50 [5] | GI50 [6] | GI50 [7] | GI50 [8] | GI50 [9] | GI50 [10] |
| --- | --- | --- | --- | --- | --- | --- | --- | --- | --- | --- | --- | --- | --- | --- | --- | --- | --- | --- | --- | --- |
| CCOc1ccccc1NC(=O)CCc1nc(=S)[nH][nH]1 | > 100 µM | > 100 µM | > 100 µM | > 100 µM | > 100 µM | > 100 µM | > 100 µM | > 100 µM | > 100 µM | > 100 µM | – | – | – | – | – | – | – | – | – | – |
| COC(=O)c1c(-c2ccccc2)sc(-c2cccc3ccccc23)c1C(=O)OC | > 100 µM | > 100 µM | > 100 µM | > 100 µM | > 100 µM | > 100 µM | > 100 µM | > 100 µM | > 100 µM | > 100 µM | – | – | – | – | – | – | – | – | – | – |
| CCN(CC)c1ccc2c(c1)Nc1cc(=C(C#N)C#N)c3ccccc3c1=N2 | > 100 µM | > 100 µM | > 100 µM | > 100 µM | > 100 µM | > 100 µM | > 100 µM | > 100 µM | > 100 µM | > 100 µM | – | – | – | – | – | – | – | – | – | – |
| Fc1cccc(Cl)c1/C=N\N=C1c2ccccc2-c2ccccc21 | > 100 µM | > 100 µM | > 100 µM | > 100 µM | > 100 µM | > 100 µM | > 100 µM | > 100 µM | > 100 µM | > 100 µM | – | – | – | – | – | – | – | – | – | – |
| O=C1c2ccccc2-n2c1nc1ccccc1c2=O | > 100 µM | 12 µM | 42.9 µM | 11.1 µM | 41.4 µM | 9.65 µM | 27.8 µM | > 92.1 µM | > 100 µM | 50.7 µM | – | – | – | – | – | – | – | – | – | – |
| C=C1C(=O)OC2/C=C(\C=O)CC/C=C(\C)C(O)C[C@@H]12 (stereo not given in full) | 8.69 µM | 27.4 µM | 26.8 µM | 12.4 µM | > 21.4 µM | 18 µM | 15.3 µM | 32.3 µM | 11.6 µM | 15.7 µM | – | – | – | – | – | – | – | – | – | – |
| C/C(=N\NC(N)=S)c1nc2ccc(Cl)cc2[nH]1 | 30.6 µM | 5.83 µM | 3.27 µM | 28.5 µM | 19.9 µM | > 50 µM | 10.1 µM | 17.8 µM | 7.96 µM | 35.9 µM | 3.3 µM | 1.33 µM | 0.3 µM | 1.8 µM | 1.55 µM | 5.05 µM | 2.17 µM | 3.06 µM | 1.59 µM | 5.7 µM |
| CC1CCN(CC(=O)N2c3ccccc3Sc3cc4ccccc4cc32)CC1 | > 100 µM | > 100 µM | > 100 µM | > 100 µM | > 100 µM | > 100 µM | > 100 µM | > 100 µM | > 100 µM | > 100 µM | – | – | – | – | – | – | – | – | – | – |
| CCOC(=O)CC1NC(=O)CS1 (stereo not given) | 60.1 µM | > 100 µM | > 100 µM | > 100 µM | > 100 µM | > 100 µM | 16.3 µM | > 100 µM | > 100 µM | > 100 µM | – | – | – | – | – | – | – | – | – | – |
| CCN(CCNc1ccc(C)c2sc3ccccc3c(=O)c12)CC(C)(C)O | 8.04 µM | 11.2 µM | 24.3 µM | 12.2 µM | > 35.7 µM | 5.43 µM | 13.2 µM | 31.5 µM | 23 µM | 17.8 µM | 2.11 µM | 3.24 µM | 7.34 µM | 4.21 µM | 8.9 µM | 2.15 µM | 3 µM | 13.2 µM | 8.31 µM | 6.16 µM |
| Cc1c2cc[n+](C)cc2c(C)c2c1[nH]c1ccc(O)c(OCC(F)(F)F)c12 | 16.8 µM | 48.6 µM | 25.6 µM | 15.7 µM | 13 µM | 18.9 µM | 12.6 µM | 23.1 µM | 9.35 µM | 16 µM | – | – | – | – | – | – | – | – | – | – |
| COC1CC(OC(=O)c2ccccc2)C(OC(=O)c2ccccc2)C(C)O1 (stereo not given) | > 100 µM | > 100 µM | > 100 µM | > 100 µM | > 100 µM | > 100 µM | > 100 µM | > 100 µM | > 100 µM | > 100 µM | – | – | – | – | – | – | – | – | – | – |
| COc1cc(S(C)(=O)=O)ccc1Nc1nc2ccc(-c3ccc(NC(=O)[C@H](C)c4ccc(F)cc4)cc3)cn2n1 | > 100 µM | > 100 µM | > 100 µM | > 100 µM | > 100 µM | > 100 µM | > 100 µM | > 100 µM | > 100 µM | > 100 µM | 0.847 µM | 0.0821 µM | > 100 µM | 33.2 µM | 12.9 µM | > 100 µM | 0.0838 µM | > 100 µM | > 100 µM | > 100 µM |
| CCN1CSC(=S)N(CC)C1 | > 100 µM | > 100 µM | > 100 µM | > 100 µM | 47.4 µM | > 100 µM | > 100 µM | > 100 µM | > 100 µM | > 100 µM | – | – | – | – | – | – | – | – | – | – |
